Measurements reported in patent US8460894B2, “Calcium-sensing receptor 2 (CaR2) and methods for using” (ABT Holding Company, priority 2002, dated 2013).
Values joined by “and” are separate entries in the source; they are usually repeats but may differ in a detail not shown here. Equal values may be shown once. “Also recorded” adds a separate entry of the source.

How the values were obtained:
CaR2 = biological target: T1, CaR2 (Homo sapiens, UniProt Q5T6X5, P91S); assay: FLIPR intracellular Ca^++ assay in HEK293 clone expressing CaR2 (HEK-167B12-2.1); format: cell-based; conditions: for FLIPR response / activation of CaR2 by ligand: initial ligand testing, ligand alone; for effect of Pb on activation of CaR2 by combined OC and Ca^++: OC and Ca^++ pre-incubated with / in the presence of Pb
T1 construct: molecular acquisition of the full-length cDNA led to the identification of the six coding exons; expressed in transfected cells
T1 sequence (Q5T6X5 19-926 P91S): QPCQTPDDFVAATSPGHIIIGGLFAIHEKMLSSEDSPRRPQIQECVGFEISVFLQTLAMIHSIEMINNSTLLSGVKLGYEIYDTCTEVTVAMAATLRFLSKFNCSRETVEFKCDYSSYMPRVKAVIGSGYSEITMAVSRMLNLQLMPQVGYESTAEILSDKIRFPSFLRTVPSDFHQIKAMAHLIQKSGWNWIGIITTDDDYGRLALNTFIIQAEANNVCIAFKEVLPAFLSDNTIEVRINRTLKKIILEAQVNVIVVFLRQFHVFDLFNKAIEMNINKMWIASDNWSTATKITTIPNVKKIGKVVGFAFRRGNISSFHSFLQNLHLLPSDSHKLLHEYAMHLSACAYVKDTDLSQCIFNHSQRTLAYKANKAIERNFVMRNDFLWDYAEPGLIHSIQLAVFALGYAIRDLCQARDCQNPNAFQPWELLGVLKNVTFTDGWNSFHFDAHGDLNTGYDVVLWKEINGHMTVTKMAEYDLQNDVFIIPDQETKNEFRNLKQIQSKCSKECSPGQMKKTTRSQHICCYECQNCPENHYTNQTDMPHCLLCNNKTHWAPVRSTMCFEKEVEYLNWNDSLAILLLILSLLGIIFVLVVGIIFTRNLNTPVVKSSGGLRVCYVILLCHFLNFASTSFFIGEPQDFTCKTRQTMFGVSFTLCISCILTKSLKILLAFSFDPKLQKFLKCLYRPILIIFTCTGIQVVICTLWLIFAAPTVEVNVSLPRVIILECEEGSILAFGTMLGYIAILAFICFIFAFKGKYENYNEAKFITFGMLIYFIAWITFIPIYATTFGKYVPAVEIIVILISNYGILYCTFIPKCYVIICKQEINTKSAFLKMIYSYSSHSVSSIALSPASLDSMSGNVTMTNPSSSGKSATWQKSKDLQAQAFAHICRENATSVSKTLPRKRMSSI
Method: To facilitate pharmacological experimentation, CaR2 cDNA was cloned into the mammalian expression vector pcDNA 3.1 (+) Neo with or without a COOH-terminal FLAG epitope. The transgene was introduced into the HEK293 cell line and stable transfectants were identified. These clones were analyzed for CaR2 expression by qPCR and Western blotting to identify those clones that were suitable for ligand identification.
Based on the homology to the characterized goldfish odorant receptor 5.24, initial studies investigated the ability of 18 naturally occurring amino acids to trigger changes of intracellular Ca^++ levels in the transfected cells, as measured with a fluorescent imaging plate reader (FLIPR).
(§1) Intracellular Ca^++ was measured using a fluorometric imaging plate reader (FLIPR) [Molecular Devices]. Cells were seeded at a density of 1×10^5/well (96-well plate) or 1×10^4/well (384-well plate) in collagen coated plates and incubated overnight at 36.9° C. with 5% CO2. Medium was aspirated from the plates and replaced with equal volumes of a no wash calcium dye (Molecular Devices) and modified Hank's buffered saline solution [Ca^2+-free, Mg^2+-free] (140 mM NaCl, 5.4 mM KCl, 0.64 mM KH2PO4, 3 mM NaHCO3, 5.5 mM C6H12O6, 20 mM HEPES, 2.5 mM Caprylic acid (or 2.5 mM probenecid)). The plates were incubated for 1 hour at 36.9° C. with 5% CO2. FLIPR was used to measure changes in intracellular calcium as relative fluorescence upon activation by ligand.

parental HEK293 cells = assay: FLIPR intracellular Ca^++ assay in parental HEK293 cells (no CaR2); format: cell-based
Method: as §1
(§2) Also, the apical side of cells lining tubules in Henle's loop in kidney and in epithelial cells lining prostate ducts are microenvironments where a higher than standard extracellular Ca^++ can be expected.
(§3) Having shown that high calcium levels activate CaR2, the effects of several agents known to modulate bone metabolism were determined.

Saos-2 osteoblasts = assay: Osteoblast survival and proliferation in high mM Ca^++; format: cell-based
From the text: Saos-2 osteoblasts (ATCC-HTB-85) express CaR2 as determined by Western Blotting.

CaR [1] = conditions: CaR in transfected HEK 293 cells; read-out: EC50 for Ca^++ at CaR; cited from earlier work
CaR [2] = assay: Activation of CaR in transfected HEK 293 cells; format: cell-based; conditions: HEK293 cells that express the previously characterized CaR
Method: as §1, §2, §3

With [Ca+2] [Ca^++, calcium] the “CaR2 activation by Ca^++” value (CaR2; 10 mM Ca^++ (FIG. 4)) was “modest activation”, the “CaR2 activation by Ca^++” value (CaR2; 40 mM Ca^++ (FIG. 4)) was “robustly activated” and the EC50 (CaR2; HEK293 clone expressing CaR2, FLIPR) was 85 mM. For the same compound, the “calcium level causing marked increase in fluorescence signal (intracellular Ca^++)” value (CaR2; clone expressing CaR2 (FIG. 2)) was greater than 20 mM, the “FLIPR response / activation of CaR2 by ligand” value (from here on “FLIPR response / activation”) (CaR2) was “failed to elicit a positive FLIPR response” and the “increase in fluorescence signal by high calcium levels” value (parental HEK293 cells; parental cell line, >20 mM calcium) was “not observed”. For the same compound, the “growth of Saos-2 cells” value (Saos-2 osteoblasts; buffer containing 2 mM Ca^++) was “grew”, the “proliferation and survival of Saos-2 cells” value (Saos-2 osteoblasts; medium containing 10 mM Ca^++) was “did not proliferate” and the “proliferation and survival of Saos-2 cells” value (Saos-2 osteoblasts; medium containing 40 mM Ca^2+) was “survived and proliferated normally”. For the same compound, the EC50 (CaR [1]) was 4.1 mM and 4 mM.
With NCCCC(=O)O [GABA, reference compound] the “FLIPR response / activation” value (CaR2) was “failed to elicit a positive FLIPR response”.
For CN[C@H](CC(=O)O)C(=O)O [NMDA, reference compound], the “FLIPR response / activation” value (CaR2) was “failed to elicit a positive FLIPR response”.
With [Pb+2] [Pb^++, reference compound] the “effect of Pb on activation of CaR2 by combined OC and Ca^++” value (CaR2) was “blocked” and the “effect of Pb on activation of CaR2 by combined OC and Ca^++” value (CaR2; listed as Pb^2+) was “reversed”.
In the case of “OC: vitamin K-dependent bone calcium binding protein, 49 amino acids, synthesized by osteoblasts (YLYQWLGAPVPYPDPLEPRREVCELNPDCDELADHIGFQEAYRRFYGPV; UniProt P02818 52-100, looked up)”, the “synergistic effect of OC and calcium on CaR2” value (CaR2; OC and calcium added separately, not pre-incubated) is reported as “not when both ligands are added separately”, the “effect of OC on activation of CaR2 by Ca^++” value (CaR2; OC pre-incubated with calcium) is reported as “CaR2 was activated at lower calcium levels and the activation by high mM calcium was potentiated; also recorded: dose-dependent effect; also recorded: activates CaR2 when pre-incubated with 10 mM Ca^++ in a dose-dependent manner; also recorded: increases the sensitivity of CaR2 to Ca^++” and the “activation of CaR2 by OC” value (CaR2; in the absence of calcium) is reported as “does not activate CaR2”. The “effect of OC and Ca^++” value (CaR [2]) was “not observed” and the “effect of OC and Ca^++” value (parental HEK293 cells; parental HEK293 cells that do not express CaR2) was “not observed”.
In the case of calcitonin [CT], the “intracellular Ca^++ in the CaR2 clone” value (CaR2; either ligand (BMP-2 or CT) added alone, absence of calcium) is reported as “not seen”.
